Broadly, the IC50 is the concentration needed to halve the response being measured. The melting point is the temperature of the solid-liquid transition.

Results on 30 compounds are retold here after US20110294842A9, “SPIRO (FURO [3, 2-C] PYRIDINE-3-3' -INDOL) -2' (1'H)-ONE DERIVATIVES AND RELATED COMPOUNDS FOR THE TREATMENT OF SODIUM-CHANNEL MEDIATED DISEASES, SUCH AS PAIN” (Xenon Pharmaceuticals Inc., priority 2006, published 2011).

In one data set the test system is sodium channel. Nature of the data set: Guanidine influx assay (in vitro). To be noted: known cell line that expresses a sodium channel; read-out: IC50 Activity Level. In kind it is cell-based, human or rat. The source says:
This example describes an in vitro assay for testing and profiling test agents against human or rat sodium channels stably expressed in cells of either an endogenous or recombinant origin. The assay is also useful for determining the IC-50 of a sodium channel blocking compound. The assay is based on the guanidine flux assay described by Reddy, N. L., et al., J Med Chem (1998), 41(17):3298-302.
The guanidine influx assay is a radiotracer flux assay used to determine ion flux activity of sodium channels in a high-throughput microplate-based format. The assay uses ^14C-guanidine hydrochloride in combination with various known sodium channel modulators, to assay the potency of test agents. Potency is determined by an IC-50 calculation. Selectivity is determined by comparing potency of the compound for the channel of interest to its potency against other sodium channels (also called ‘selectivity profiling’).
Each of the test agents is assayed against cells that express the channels of interest. Voltage gated sodium channels are either TTX sensitive or insensitive. This property is useful when evaluating the activities of a channel of interest when it resides in a mixed population with other sodium channels. The following Table 1 summarizes cell lines useful in screening for a certain channel activity in the presence or absence of TTX.
Cells expressing the channel of interest are grown according to the supplier or in the case of a recombinant cell in the presence of selective growth media such as G418 (Gibco/Invitrogen). The cells are disassociated from the culture dishes with an enzymatic solution (1×) Trypsin/EDTA (Gibco/Invitrogen) and analyzed for density and viability using haemocytometer (Neubauer). Disassociated cells are washed and resuspended in their culture media then plated into Scintiplates (Beckman Coulter Inc.) (approximately 100,000 cells/well) and incubated at 37° C./5% CO2 for 20-24 hours. After an extensive wash with Low sodium HEPES-buffered saline solution (LNHBSS) (150 mM Choline Chloride, […] (Sigma), 1 mM Calcium Chloride, 5 mM Potassium Chloride, 1 mM Magnesium Chloride, 10 mM Glucose) agents diluted with LNHBSS are added to each well. (Varying concentrations of test agent may be used). The activation/radiolabel mixture contains aconitine (Sigma), and ^14C-guanidine hydrochloride (ARC).
After loading the cells with test agent and activation/radiolabel mixture, the Scintiplates are incubated at ambient temperature. Following the incubation, the Scintplates are extensively washed with LNHBSS supplemented with guanidine (Sigma). The Scintiplates are dried and then counted using a Wallac MicroBeta TriLux (Perkin-Elmer Life Sciences). The ability of the test agent to block sodium channel activity is determined by comparing the amount of ^14C-guanidine present inside the cells expressing the different sodium channels.
IC-50 value of a test agent for a specific sodium channel may be determined using the above general method. IC-50 may be determined using a 3, 8, 10, 12 or 16 point curve in duplicate or triplicate with a starting concentration of 1, 5 or 10 μM diluted serially with a final concentration reaching the sub-nanomolar, nanomolar and low micromolar ranges. Typically the mid-point concentration of test agent is set at 1 μM, and sequential concentrations of half dilutions greater or smaller are applied (e.g. 0.5 μM; 5 μM and 0.25 μM; 10 μM and 0.125 μM; 20 μM etc.). The IC-50 curve is calculated using the 4 Parameter Logistic Model or Sigmoidal Dose-Response Model formula (fit=(A+((B−A)/(1+((C/×)̂ D)))).
The Synthetic Example numbers provided in Table 2 correspond to the Synthetic Examples herein: […]

The test system of another data set is CHO-K1 (Nav1.4). In kind it is cell-based, Chinese Hamster.
The subject of another data set is L6 (Nav1.4 and 1.5). In kind it is cell-based, rat.
The target of another data set is SK-N-BE2C (NaV1.8) (Homo sapiens, UniProt Q9Y5Y9). The data set is classed as cell-based.
In the next data set the target is PC12 (Nav1.2) (Rattus norvegicus, UniProt P04775).
PC12 (Nav1.2), sequence (P04775 whole entry, looked up): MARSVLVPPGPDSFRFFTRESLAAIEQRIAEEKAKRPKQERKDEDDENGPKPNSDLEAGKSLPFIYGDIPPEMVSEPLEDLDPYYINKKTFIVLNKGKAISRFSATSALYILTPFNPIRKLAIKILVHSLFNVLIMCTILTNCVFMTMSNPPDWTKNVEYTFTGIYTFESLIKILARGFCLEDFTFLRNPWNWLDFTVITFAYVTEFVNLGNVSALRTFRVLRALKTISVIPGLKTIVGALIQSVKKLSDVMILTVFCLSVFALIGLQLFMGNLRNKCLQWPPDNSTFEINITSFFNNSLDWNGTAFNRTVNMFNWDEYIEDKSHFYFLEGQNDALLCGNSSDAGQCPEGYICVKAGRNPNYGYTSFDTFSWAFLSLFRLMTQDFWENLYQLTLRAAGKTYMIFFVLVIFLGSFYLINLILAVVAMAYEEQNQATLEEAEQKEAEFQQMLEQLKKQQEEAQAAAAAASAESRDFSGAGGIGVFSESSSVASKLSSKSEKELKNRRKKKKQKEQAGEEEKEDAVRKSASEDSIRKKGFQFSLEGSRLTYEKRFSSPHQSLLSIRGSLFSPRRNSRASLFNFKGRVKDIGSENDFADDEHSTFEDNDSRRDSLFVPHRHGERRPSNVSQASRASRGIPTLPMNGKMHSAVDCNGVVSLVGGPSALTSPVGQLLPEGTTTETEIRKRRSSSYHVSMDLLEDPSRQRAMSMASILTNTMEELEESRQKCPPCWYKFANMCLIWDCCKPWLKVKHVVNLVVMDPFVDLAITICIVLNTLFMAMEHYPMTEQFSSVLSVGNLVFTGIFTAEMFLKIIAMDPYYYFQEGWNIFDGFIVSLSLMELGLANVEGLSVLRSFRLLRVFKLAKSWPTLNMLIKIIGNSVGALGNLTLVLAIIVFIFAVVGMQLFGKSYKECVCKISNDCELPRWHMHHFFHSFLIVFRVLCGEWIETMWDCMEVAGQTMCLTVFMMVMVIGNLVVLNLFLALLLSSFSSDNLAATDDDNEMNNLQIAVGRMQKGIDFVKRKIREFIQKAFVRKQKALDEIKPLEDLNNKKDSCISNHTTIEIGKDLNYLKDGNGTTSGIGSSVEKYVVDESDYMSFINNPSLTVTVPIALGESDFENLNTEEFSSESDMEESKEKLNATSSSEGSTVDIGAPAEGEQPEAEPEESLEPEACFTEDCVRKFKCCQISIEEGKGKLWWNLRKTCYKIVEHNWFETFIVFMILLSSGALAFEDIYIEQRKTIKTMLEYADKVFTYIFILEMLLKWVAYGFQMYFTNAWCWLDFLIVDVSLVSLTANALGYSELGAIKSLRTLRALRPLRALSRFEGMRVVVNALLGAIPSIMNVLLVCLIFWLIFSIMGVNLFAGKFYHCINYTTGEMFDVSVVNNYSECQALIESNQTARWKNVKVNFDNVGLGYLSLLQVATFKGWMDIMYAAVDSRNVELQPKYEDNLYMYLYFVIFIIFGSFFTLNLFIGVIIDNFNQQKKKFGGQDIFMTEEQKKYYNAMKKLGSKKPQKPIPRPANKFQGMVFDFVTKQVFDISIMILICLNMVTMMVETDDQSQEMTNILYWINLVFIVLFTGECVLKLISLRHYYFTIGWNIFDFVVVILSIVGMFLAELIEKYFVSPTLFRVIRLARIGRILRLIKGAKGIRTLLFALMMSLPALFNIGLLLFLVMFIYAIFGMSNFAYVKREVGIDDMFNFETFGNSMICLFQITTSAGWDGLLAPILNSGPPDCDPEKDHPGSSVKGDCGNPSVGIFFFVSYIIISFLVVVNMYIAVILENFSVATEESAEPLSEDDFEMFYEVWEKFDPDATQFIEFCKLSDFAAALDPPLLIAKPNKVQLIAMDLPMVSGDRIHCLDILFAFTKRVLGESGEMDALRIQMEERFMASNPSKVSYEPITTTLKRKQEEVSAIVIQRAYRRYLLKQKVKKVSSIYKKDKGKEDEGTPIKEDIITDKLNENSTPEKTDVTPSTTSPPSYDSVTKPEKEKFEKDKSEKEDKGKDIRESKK

SK-N-BE2C (NaV1.8), sequence (Q9Y5Y9 whole entry, looked up): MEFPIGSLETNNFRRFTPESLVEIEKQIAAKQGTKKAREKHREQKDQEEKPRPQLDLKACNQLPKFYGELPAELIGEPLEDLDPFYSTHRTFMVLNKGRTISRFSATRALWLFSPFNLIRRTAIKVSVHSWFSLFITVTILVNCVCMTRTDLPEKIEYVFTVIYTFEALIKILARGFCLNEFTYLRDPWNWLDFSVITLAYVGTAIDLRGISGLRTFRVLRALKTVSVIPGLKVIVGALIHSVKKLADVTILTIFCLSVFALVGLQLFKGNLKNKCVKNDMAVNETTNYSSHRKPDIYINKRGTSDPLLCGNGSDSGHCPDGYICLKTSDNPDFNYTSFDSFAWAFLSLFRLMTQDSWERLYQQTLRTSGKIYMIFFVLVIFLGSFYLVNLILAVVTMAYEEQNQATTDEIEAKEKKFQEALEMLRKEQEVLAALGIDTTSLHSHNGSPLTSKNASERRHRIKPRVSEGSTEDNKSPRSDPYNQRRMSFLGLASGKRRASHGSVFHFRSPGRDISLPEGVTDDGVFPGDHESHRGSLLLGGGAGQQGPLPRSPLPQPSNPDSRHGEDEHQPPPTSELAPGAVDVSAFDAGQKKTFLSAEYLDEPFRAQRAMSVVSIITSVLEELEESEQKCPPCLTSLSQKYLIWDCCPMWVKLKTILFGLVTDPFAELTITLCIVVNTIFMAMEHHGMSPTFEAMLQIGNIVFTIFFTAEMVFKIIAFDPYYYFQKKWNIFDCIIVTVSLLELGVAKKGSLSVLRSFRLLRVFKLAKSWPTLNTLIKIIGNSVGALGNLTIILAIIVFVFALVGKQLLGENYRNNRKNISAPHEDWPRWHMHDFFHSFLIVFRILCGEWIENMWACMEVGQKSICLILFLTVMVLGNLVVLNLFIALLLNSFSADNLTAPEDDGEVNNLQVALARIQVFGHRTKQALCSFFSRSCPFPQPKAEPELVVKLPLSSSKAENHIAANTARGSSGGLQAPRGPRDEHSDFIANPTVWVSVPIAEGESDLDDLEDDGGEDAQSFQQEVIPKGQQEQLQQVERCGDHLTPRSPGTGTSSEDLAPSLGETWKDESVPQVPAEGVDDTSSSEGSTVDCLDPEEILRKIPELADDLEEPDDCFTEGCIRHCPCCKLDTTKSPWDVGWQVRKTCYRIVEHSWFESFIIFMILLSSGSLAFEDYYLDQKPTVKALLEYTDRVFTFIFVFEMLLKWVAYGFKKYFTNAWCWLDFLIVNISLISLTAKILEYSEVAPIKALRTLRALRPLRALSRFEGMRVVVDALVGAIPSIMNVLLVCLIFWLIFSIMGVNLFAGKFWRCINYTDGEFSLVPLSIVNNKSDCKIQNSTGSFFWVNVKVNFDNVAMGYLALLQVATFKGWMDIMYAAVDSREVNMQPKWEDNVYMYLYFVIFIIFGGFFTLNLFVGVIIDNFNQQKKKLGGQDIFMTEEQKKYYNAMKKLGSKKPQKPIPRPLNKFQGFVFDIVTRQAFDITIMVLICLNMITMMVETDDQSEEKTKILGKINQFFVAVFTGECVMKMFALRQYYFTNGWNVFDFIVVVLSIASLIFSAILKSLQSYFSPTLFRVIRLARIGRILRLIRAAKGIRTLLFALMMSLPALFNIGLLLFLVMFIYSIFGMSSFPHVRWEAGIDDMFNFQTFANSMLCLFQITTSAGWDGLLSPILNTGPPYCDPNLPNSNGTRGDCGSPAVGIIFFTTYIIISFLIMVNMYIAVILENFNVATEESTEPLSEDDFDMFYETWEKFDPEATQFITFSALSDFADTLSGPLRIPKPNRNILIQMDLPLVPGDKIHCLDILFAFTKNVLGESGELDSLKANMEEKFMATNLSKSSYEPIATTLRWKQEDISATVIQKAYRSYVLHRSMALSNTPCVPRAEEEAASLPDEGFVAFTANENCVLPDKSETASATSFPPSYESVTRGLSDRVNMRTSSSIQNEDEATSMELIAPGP

Regarding `CCCCCN1C(=O)C2(COc3ccncc32)c2ccccc21` (stereo not shown) [Example 1], the IC50 in the data set with sodium channel fell in the range of 100 to 1000 nM. With `CCCCCN1C(=O)C2(COc3ccncc32)c2ccccc21` (stereo not shown) [Example 2], in the data set on sodium channel, the IC50 was not below 1000 nM. Take `CCCCCN1C(=O)C2(COc3cc[nH]c(=O)c32)c2ccccc21` (stereo not shown) [Example 3]: in the data set with sodium channel, the IC50 was not below 1000 nM.

In the case of `COc1ccc2c(n1)C1(CO2)C(=O)N(Cc2ccc(C(F)(F)F)o2)c2cccc(Br)c21` (stereo not shown) [Example 4], the IC50 with sodium channel lay within 10 to 100 nM. The same measure, in the same setting: as for `COc1ccc2c(n1)C1(CO2)C(=O)N(Cc2ccc(C(F)(F)F)o2)c2ccccc21` (stereo not shown) [Example 5], the figure is 100 to 1000 nM; as for `O=C1N(Cc2ccc(C(F)(F)F)o2)c2ccccc2C12COc1cc3c(nc12)OCO3` (stereo not shown) [Example 8], 1 to 10 nM; as for `COc1ccc2c(n1)C1(CO2)C(=O)N(Cc2ccc(C(F)(F)F)o2)c2ccc(F)cc21` (stereo not shown) [Example 10], not below 1000 nM. For the compound `COc1ccc2c(n1)C1(CO2)C(=O)N(Cc2ccc(C(F)(F)F)o2)c2cccc(Cl)c21` (stereo not shown) [Example 11], the IC50 in the data set on sodium channel fell in the range of 100 to 1000 nM. With `COc1ccc2c(n1)C1(CO2)C(=O)Nc2cccc(Br)c21` (stereo not shown) [Example 12], the IC50 in the data set on sodium channel lay in the range of 100 to 1000 nM. In the case of `COc1ccc2c(n1)C1(CO2)C(=O)Nc2ccccc21` (stereo not shown) [Example 13], the melting point lay within 199 to 200 °C. Also, in the data set with sodium channel, the IC50 is not below 1000 nM.

In the case of `COc1ccc2c(n1)C1(CO2)C(=O)N(Cc2ccc(Cl)s2)c2ccccc21` (stereo not shown) [Example 15], the IC50 in the data set on sodium channel lay in the range of 10 to 100 nM. The compound `COc1ccc2c(n1)C1(CO2)C(=O)N(Cc2csc(C(C)C)n2)c2ccccc21` (stereo not shown) [Example 16] gave a melting point of 136 to 138 °C. Moreover, the IC50 in the data set with sodium channel lay in the range of 10 to 100 nM. Regarding `COc1ccc2c(n1)C1(CO2)C(=O)N(Cc2ccccn2)c2ccccc21` (stereo not shown) [Example 17], in the data set with sodium channel, the IC50 fell in the range of 100 to 1000 nM.

Take `COc1ccc2c(n1)C1(CO2)C(=O)N(CC(=O)Nc2ccccc2F)c2ccccc21` (stereo not shown) [Example 18]: the IC50 in the data set on sodium channel was in the range of 100 to 1000 nM. `COc1ccc2c(n1)C1(CO2)C(=O)N(Cc2ncc(Cl)n2C)c2ccccc21` (stereo not shown) [Example 19] returned a melting point of 169 to 171 °C. Moreover, the IC50 with sodium channel is 100 to 1000 nM. Take `COc1ccc2c(n1)C1(CO2)C(=O)N(CC2CCN(C)CC2)c2ccccc21` (stereo not shown) [Example 22]: the melting point fell in the range of 58 to 62 °C. In addition, the IC50 in the data set on sodium channel was not below 1000 nM. In the case of `COc1cc2c(cn1)OCC21C(=O)N(Cc2ccc(C(F)(F)F)o2)c2ccccc21` (stereo not shown) [Example 23], the IC50 with sodium channel lay within 1 to 10 nM. For `COc1cc2c(cn1)OCC21C(=O)N(C(c2ccccc2)c2ccccc2)c2ccccc21` (stereo not shown) [Example 24], the IC50 in the data set on sodium channel is not below 1000 nM.

Turning to `COc1cc2c(cn1)OCC21C(=O)Nc2ccccc21` (stereo not shown) [Example 25], the IC50 in the data set with sodium channel lay within 100 to 1000 nM. Same read-out and setting: as for `COc1cc2c(cn1)OCC21C(=O)N(CC2CCOCC2)c2ccccc21` (stereo not shown) [Example 26], the figure is 100 to 1000 nM; as for `COc1cc2c(cn1)OCC21C(=O)N(C[C@@H]2CCCO2)c2ccccc21` (stereo partly shown) [Example 27], 10 to 100 nM. Same read-out and setting: the value for `COc1cc2c(cn1)OCC21C(=O)N(C[C@H]2CCCO2)c2ccccc21` (stereo partly shown) [Example 28] was 10 to 100 nM. Take `COc1ccc2c(n1)C1(CO2)C(=O)N(Cc2ccc(C(F)(F)F)o2)c2ccccc21` (stereo not shown) [Synthetic Example 5, 5-methoxy-1′-{[5-(trifluoromethyl)-2-furyl]methyl}spiro[furo[3,2-b]pyridine-3,3′-indol]-2′(1′H)-one]: the melting point lay within 145 to 147 °C. Same read-out and setting: the value for `O=C1N(Cc2ccc(C(F)(F)F)o2)c2ccccc2C12COc1ccc(=O)[nH]c12` (stereo not shown) [Synthetic Example 7, 1′-{[5-(trifluoromethyl)-2-furyl]methyl}spiro[furo[3,2-b]pyridine-3,3′-indole]-2′,5(1′H,4H)-dione] was 175 to 177 °C.

Consider `O=C1N(Cc2ccc(C(F)(F)F)o2)c2ccccc2C12COc1cc3c(nc12)OCO3` (stereo not shown) [Synthetic Example 8, 1′-{[5-(trifluoromethyl)-2-furyl]methyl}spiro[1,3-dioxolo[4,5-b]furo[2,3-e]pyridine-5,3′-indol]-2′(1′H)-one], for which the melting point was 175 to 177 °C. The compound `COc1ccc2c(n1)C1(CO2)C(=O)N(Cc2ccc(C(F)(F)F)o2)c2ccc(F)cc21` (stereo not shown) [Synthetic Example 10, 5′-fluoro-5-methoxy-1′-{[5-(trifluoromethyl)-2-furyl]methyl}spiro[furo[3,2-b]pyridine-3,3′-indol]-2′(1′H)-one] gave a melting point of 158 to 160 °C. The same measure, in the same setting: as for `COc1ccc2c(n1)C1(CO2)C(=O)Nc2cccc(Br)c21` (stereo not shown) [Synthetic Example 12, 4′-bromo-5-methoxyspiro[furo[3,2-b]pyridine-3,3′-indol]-2′(1′H)-one], the figure is 265 to 268 °C; as for `COc1cc2c(cn1)OCC21C(=O)Nc2ccccc21` (stereo not shown) [Synthetic Example 25, 5-methoxyspiro[furo[2,3-c]pyridine-3,3′-indol]-2′(1′H)-one], 231 to 232 °C. For `COc1cc2c(cn1)OCC21C(=O)N(CC2CCOCC2)c2ccccc21` (stereo not shown) [Synthetic Example 26, 5-methoxy-1′-(tetrahydro-2H-pyran-4-ylmethyl)spiro[furo[2,3-c]pyridine-3,3′-indol]-2′(1′H)-one], the melting point was in the range of 84 to 85 °C. Consider `NC1=N[C@H](O)[C@H]2[C@H]3O[C@]4(O)O[C@@H]([C@@H](O)[C@@]2(N1)[C@@H]4O)[C@]3(O)CO` [TTX, tetrodotoxin], for which the “block of [14C] guanidine influx” value with CHO-K1 (Nav1.4) is reported as “Guanidine influx was completely”; with L6 (Nav1.4 and 1.5) it was “partially blocked by TTX (Nav1.5”; at SK-N-BE2C (NaV1.8) it was “TTX partially blocked influx”; on PC12 (Nav1.2), “Guanidine influx was completely”.
